Earlier results in patent US20140024653A1, “COMPOSITIONS AND METHODS FOR TREATING CANCER USING PI3K INHIBITOR AND MEK INHIBITOR” (priority 2011, published 2014).

Tests used:
[1] = mice; cited from earlier work
[2] = system: PC-3, U87-MG, A2058, WM-266-4 and MCF7 xenografts; conditions: oral administration alone; PTEN-deficient PC-3, U87-MG, A2058, WM-266-4 or PIK3CA mutated MCF7 xenografts; cited from earlier work

| Structure (SMILES) | two-week maximum tolerated dose [1] | tumor growth [2] |
| --- | --- | --- |
| O=C(NC[C@H](O)CO)c1ccncc1Nc1ccc(I)cc1F [Compound (1), N—((S)-2,3-dihydroxypropyl)-3-(2-fluoro-4-iodo-phenylamino)isonicotinamide] | 60 mg/kg BID |  |
| CCn1c(=O)c(-c2ccn[nH]2)cc2c(C)nc(N)nc21 [Compound (2b), 2-amino-8-ethyl-4-methyl-6-(1H-pyrazol-5-yl)pyrido[2,3-d]pyrimidin-7(8H)-one] |  | inhibits tumor growth |
